Assay results: patent US20080085871A1, “Novel polysaccharide pro-drug 5-fluorouracil (5-FU) with enhanced target specificity for colorectal cancer and its preparation methods” (priority 2006, published 2008)

Assays:
[1] = Distribution of 5-FU in different parts of the GI tract after oral feeding to mice; assay type: in vivo; parameters: key to 5-FU (μg/g) Stomach / 5-FU (μg/g) Proximal Small Intestine / 5-FU (μg/g) Distal Small Intestine / 5-FU (μg/g) Ileum and Cecum / 5-FU (μg/g) Colon and Rectum: —: dashed lines represent undetectable levels of 5-FU; conditions: for 5-FU (μg/g) Colon and Rectum / 5-FU (μg/g) Distal Small Intestine / 5-FU (μg/g) Ileum and Cecum / 5-FU (μg/g) Proximal Small Intestine / 5-FU (μg/g) Stomach: oral 22.5 mg/kg, n = 6, x ± s
Description: Note that the dashed lines represent undetectable levels of 5-FU.

normal mice = assay: Survival of normal mice after 7-day treatment (toxicological effects); assay type: in vivo; conditions: for Survival Rate (%) after 7-day Treatment / Survivors/total after 7-day Treatment: normal mice, n = 10
Description: Normal mice are administered with 7.5, 22.5, or 67.5 mg/kg/d of 5-FU and the 5-FU prodrug (as equivalent 5-FU dose). […]

[2] = tested on: mice with colorectal cancer induced by DMH-DSS; assay: Therapeutic effects on mice with colorectal cancer induced by DMH-DSS; assay type: in vivo; conditions: 22.5 mg/kg/d equivalent 5-FU, two 7-day treatment periods with 7 days rest (21 days)
Description: The doses delivered are equivalent with 1 time per day for 7 days as one treatment period, and then another period of treatment after 7 days of rest (i.e., a total of 21 days, two treatment periods with one week of rest in between).

COLO-205 cell = assay: In vitro suppression of COLO-205 cell proliferation; assay type: cell-based; conditions: Homo sapiens, details not enclosed, read-out: IC50 for suppressing COLO-205 cell proliferation
Description: (§1) However, it should be understood that the 5-FU prodrug exerts its efficacy after it is digested and hydrolyzed at the target sites in the body. Because it is a prodrug, it has no direct effect on in vitro colorectal cancer cell lines.

HT-29 cell = assay: In vitro suppression of HT-29 cell proliferation; assay type: cell-based; conditions: Homo sapiens, details not enclosed, read-out: IC50 for suppressing HT-29 cell proliferation
Description: as §1

[3] = 7.5 mg/kg/d (equivalent 5-FU dose)
[4] = 22.5 mg/kg/d (equivalent 5-FU dose)
[5] = 67.5 mg/kg/d (equivalent 5-FU dose)

O=c1[nH]cc(F)c(=O)[nH]1 [Example 5-FU, 5-fluorouracil]
main site of distribution / detection in the GI tract ([1]; fed orally): mucosa of stomach and proximal part of the small intestine
5-FU (μg/g) Colon and Rectum ([1]; 1 hr): —
5-FU (μg/g) Distal Small Intestine ([1]; 1 hr): 0.42 ± 0.21 µg/g
5-FU (μg/g) Ileum and Cecum ([1]; 1 hr): —
5-FU (μg/g) Proximal Small Intestine ([1]; 1 hr): 1.75 ± 0.24 µg/g
5-FU (μg/g) Stomach ([1]; 1 hr): 3.04 ± 0.49 µg/g
5-FU (μg/g) Colon and Rectum ([1]; 2.5 hr): 0.25 ± 0.12 µg/g
5-FU (μg/g) Distal Small Intestine ([1]; 2.5 hr): 0.43 ± 0.24 µg/g
5-FU (μg/g) Ileum and Cecum ([1]; 2.5 hr): 0.37 ± 0.12 µg/g
5-FU (μg/g) Proximal Small Intestine ([1]; 2.5 hr): 0.64 ± 0.42 µg/g
5-FU (μg/g) Stomach ([1]; 2.5 hr): 1.97 ± 0.31 µg/g
5-FU (μg/g) Colon and Rectum ([1]; 3.5 hr): 0.41 ± 0.24 µg/g
5-FU (μg/g) Distal Small Intestine ([1]; 3.5 hr): 0.62 ± 0.12 µg/g
5-FU (μg/g) Ileum and Cecum ([1]; 3.5 hr): 0.42 ± 0.21 µg/g
5-FU (μg/g) Proximal Small Intestine ([1]; 3.5 hr): 0.53 ± 0.32 µg/g
5-FU (μg/g) Stomach ([1]; 3.5 hr): 1.12 ± 0.46 µg/g
5-FU (μg/g) Colon and Rectum ([1]; 4.5 hr): 0.56 ± 0.06 µg/g
5-FU (μg/g) Distal Small Intestine ([1]; 4.5 hr): 0.35 ± 0.21 µg/g
5-FU (μg/g) Ileum and Cecum ([1]; 4.5 hr): 0.37 ± 0.12 µg/g
5-FU (μg/g) Proximal Small Intestine ([1]; 4.5 hr): 0.42 ± 0.91 µg/g
5-FU (μg/g) Stomach ([1]; 4.5 hr): 0.97 ± 0.23 µg/g
5-FU (μg/g) Colon and Rectum ([1]; 6 hr): 0.17 ± 0.04 µg/g
5-FU (μg/g) Distal Small Intestine ([1]; 6 hr): 0.31 ± 0.09 µg/g
5-FU (μg/g) Ileum and Cecum ([1]; 6 hr): 0.21 ± 0.11 µg/g
5-FU (μg/g) Proximal Small Intestine ([1]; 6 hr): 0.37 ± 0.05 µg/g
5-FU (μg/g) Stomach ([1]; 6 hr): 0.63 ± 0.31 µg/g
5-FU (μg/g) Colon and Rectum ([1]; 9 hr): 0.08 ± 0.05 µg/g
5-FU (μg/g) Distal Small Intestine ([1]; 9 hr): 0.17 ± 0.06 µg/g
5-FU (μg/g) Ileum and Cecum ([1]; 9 hr): 0.03 ± 0.01 µg/g
5-FU (μg/g) Proximal Small Intestine ([1]; 9 hr): 0.17 ± 0.04 µg/g
5-FU (μg/g) Stomach ([1]; 9 hr): 0.33 ± 0.18 µg/g
5-FU (μg/g) Colon and Rectum ([1]; 12 hr): 0.05 ± 0.02 µg/g
5-FU (μg/g) Distal Small Intestine ([1]; 12 hr): 0.07 ± 0.04 µg/g
5-FU (μg/g) Ileum and Cecum ([1]; 12 hr): 0.04 ± 0.02 µg/g
5-FU (μg/g) Proximal Small Intestine ([1]; 12 hr): 0.03 ± 0.01 µg/g
5-FU (μg/g) Stomach ([1]; 12 hr): 0.06 ± 0.03 µg/g
5-FU (μg/g) Colon and Rectum ([1]; 15 hr): —
5-FU (μg/g) Distal Small Intestine ([1]; 15 hr): —
5-FU (μg/g) Ileum and Cecum ([1]; 15 hr): —
5-FU (μg/g) Proximal Small Intestine ([1]; 15 hr): —
5-FU (μg/g) Stomach ([1]; 15 hr): —
Survival Rate (%) after 7-day Treatment (normal mice; [3]): 100%
Survivors/total after 7-day Treatment (normal mice; [3]): (10/10)
Survival Rate (%) after 7-day Treatment (normal mice; [4]): 70%
Survivors/total after 7-day Treatment (normal mice; [4]): (7/10)
Survival Rate (%) after 7-day Treatment (normal mice; [5]): 0%
Survivors/total after 7-day Treatment (normal mice; [5]): (0/10)
toxic effects in the first dose (normal mice; normal mice, 7.5, 22.5, or 67.5 mg/kg/d, first dose): no obvious toxic effects
Survival at the End of the Study ([2]; n = 10): 5/10
Survival Rate ([2]; n = 10, listed as Generic 5-Fluorouracil (5-FU)): 50%
Survival Rate ([2]; n = 10, listed as generic 5-FU): 50%
Tumor Weight Index ([2]; x ± s): 447 ± 113.5 mg/g
Tumor Weight as Compared to the Saline Control ([2]; listed as Generic 5-Fluorouracil (5-FU)): 65%
Tumor Weight as Compared to the Saline Control ([2]; listed as generic 5-FU): 65%
IC50 (COLO-205 cell): 3.2 µM
IC50 (HT-29 cell): 13 µM
